Source: US20070134261A1, “Effectors of innate immunity” (priority 2001, published 2007)
Residues, ends and D or L forms follow the SMILES beside them.

Test system: A549 human epithelial cell line
Assay: Polynucleotide array (Human Operon) of A549 cells incubated with E. coli O111:B4 LPS with or without peptide
Assay type: cell-based
Conditions: 50 μg/ml, 4 h
Description: The A549 human epithelial cell line was maintained in DMEM (Gibco) supplemented with 10% fetal bovine serum (FBS, Medicorp). […] Total RNA was isolated using RNAqueous (Ambion, Austin, Tex.). […] DNA contamination was removed with DNA-free kit, Ambion).
A “homemade” program was used to remove background. The program calculates the bottom 10% intensity for each subgrid and subtracts this for each grid.
Peptide (50 μg/ml) and LPS (0.1 μg/ml) or LPS alone was incubated with the A549 cells for 4 h and the RNA was isolated. Five μg total RNA was used to make Cy3/Cy5 labeled cDNA probes and hybridized onto Human Operon arrays (PRHU04). The intensity of unstimulated cells is shown in the third column of Table 1. The “Ratio: LPS/control” column refers to the intensity of polynucleotide expression in LPS simulated cells divided by in the intensity of unstimulated cells. The “Ratio: LPS+ID 27/control” column refers to the intensity of polynucleotide expression in cells stimulated with LPS and peptide divided by unstimulated cells.
Peptide and LPS or LPS alone was incubated with the A549 cells for 4 h and the RNA was isolated. 5 μg total RNA was used to make Cy3/Cy5 labeled cDNA probes and hybridized onto Human Operon arrays (PRHU04). The intensity of unstimulated cells is shown in the third column of Table 2. The “Ratio: LPS/control” column refers to the intensity of polynucleotide expression in LPS-simulated cells divided by in the intensity of unstimulated cells. The other columns refer to the intensity of polynucleotide expression in cells stimulated with LPS and peptide divided by unstimulated cells.

[1] = AB007856 FEM-1-like death receptor binding protein

## CSCC[C@H](NC(=O)[C@H](CO)NC(=O)[C@@H](NC(=O)[C@H](CCCCN)NC(=O)[C@H](Cc1ccccc1)NC(=O)[C@H](CS)NC(=O)[C@H](CO)NC(=O)[C@H](CCCNC(=N)N)NC(=O)[C@@H](N)CCCCN)C(C)C)C(=O)N[C@@H](CCCNC(=N)N)C(=O)NCC(=O)N[C@H](C(=O)N[C@@H](CO)C(=O)N[C@@H](CCCNC(=N)N)C(=O)N[C@@H](CCCNC(=N)N)C(=O)N[C@@H](CCCNC(=N)N)C(=O)N[C@@H](CS)C(=O)N[C@@H](CCCCN)C(=O)O)C(C)C [SEQ ID NO: 27] (H-KRSCFKVSMRGVSRRRCK-OH; N-terminus and C-terminus assumed)
AB007854 growth arrest-specific 7
  Ratio: LPS + ID 27/control: 2.2
[1]
  Ratio: LPS + ID 27/control: 0.6
  Ratio: LPS + ID/Ctrl: 0.62
AB007896 putative L-type neutral amino acid transporter
  Ratio: LPS + ID/Ctrl: 1.82
AB010894 BAI1-associated protein
  Ratio: LPS + ID/Ctrl: 1.38
AB014569 KIAA0669 gene product
  Ratio: LPS + ID 27/control: 0.2
AB023198 KIAA0981 protein
  Ratio: LPS + ID/Ctrl: 0.43
AB037722 Unknown
  Ratio: LPS + ID/Ctrl: 0.30
AB040057 serine/threonine protein kinase MASK
  Ratio: LPS + ID 27/control: 15.8
AC004849 Unknown
  Ratio: LPS + ID/Ctrl: 0.07
AF035309 proteasome 26S subunit ATPase 5
  Ratio: LPS + ID 27/control: 1.3
AF095687 brain and nasopharyngeal carcinoma susceptibility protein
  Ratio: LPS + ID/Ctrl: 0.48
AF112219 esterase D/formylglutathione hydrolase
  Ratio: LPS + ID 27/control: 1.1
AF131838 Unknown
  Ratio: LPS + ID 27/control: 1.4
AF151047 hypothetical protein
  Ratio: LPS + ID 27/control: 1.0
AF189009 ubiquilin 2
  Ratio: LPS + ID 27/control: 1.3
AJ001403 mucin 5 subtype B tracheobronchial
  Ratio: LPS + ID 27/control: 15.9
AK000087 hypothetical protein
  Ratio: LPS + ID 27/control: 1.0
AK000264 Unknown
  Ratio: LPS + ID 27/control: 0.6
AK000353 cytosolic ovarian carcinoma ag 1
  Ratio: LPS + ID/Ctrl: 1.02
AK000353 cytosolic ovarian carcinoma antigen 1
  Ratio: LPS + ID 27/control: 1.0
AK000366 hypothetical protein
  Ratio: LPS + ID 27/control: 1.0
AK000562 hypothetical protein
  Ratio: LPS + ID 27/control: 0.6
AK000869 hypothetical protein
  Ratio: LPS + ID 27/control: 2.3
  Ratio: LPS + ID/Ctrl: 2.34
AK001239 hypothetical protein
  Ratio: LPS + ID/Ctrl: 1.27
AK001440 hypothetical protein
  Ratio: LPS + ID/Ctrl: 0.43
AK001569 hypothetical protein
  Ratio: LPS + ID 27/control: 1.2
AK001589 hypothetical protein
  Ratio: LPS + ID 27/control: 1.3
  Ratio: LPS + ID/Ctrl: 1.26
AK001904 hypothetical protein
  Ratio: LPS + ID/Ctrl: 5.93
AL031983 Unknown
  Ratio: LPS + ID 27/control: 5.1
  Ratio: LPS + ID/Ctrl: 5.06
AL050337 interferon gamma receptor 1
  Ratio: LPS + ID 27/control: 1.0
AL050348 Unknown
  Ratio: LPS + ID 27/control: 1.7
AL096739 Unknown
  Ratio: LPS + ID 27/control: 0.5
AL122111 hypothetical protein
  Ratio: LPS + ID/Ctrl: 0.21
AL137376 Unknown
  Ratio: LPS + ID 27/control: 0.6
  Ratio: LPS + ID/Ctrl: 0.64
AL137614 hypothetical protein
  Ratio: LPS + ID 27/control: 1.0
D14043 CD164 antigen_sialomucin
  Ratio: LPS + ID 27/control: 1.0
D14539 myeloid/lymphoid or mixed-lineage leukemia translocated to 1
  Ratio: LPS + ID 27/control: 3.1
D42085 KIAA0095 gene product
  Ratio: LPS + ID 27/control: 1.2
D87451 ring finger protein 10
  Ratio: LPS + ID 27/control: 2.1
D87451 ring finger protein
  Ratio: LPS + ID/Ctrl: 2.1
J03925 integrin_alpha M
  Ratio: LPS + ID 27/control: 4.2
J04058 electron-transfer-flavoprotein alpha polypeptide
  Ratio: LPS + ID 27/control: 1.2
J04513 fibroblast growth factor 2
  Ratio: LPS + ID 27/control: 0.9
J05068 transcobalamin 1
  Ratio: LPS + ID/Ctrl: 1.78
K02581 thymidine kinase 1 soluble
  Ratio: LPS + ID 27/control: 3.5
L04510 ADP-ribosylation factor
  Ratio: LPS + ID 27/control: 1.4
  Ratio: LPS + ID/Ctrl: 1.4
L19185 thioredoxin-dependent peroxide reductase 1
  Ratio: LPS + ID/Ctrl: 0.18
L25931 lamin B receptor
  Ratio: LPS + ID 27/control: 0.7
L42243 interferon receptor 2
  Ratio: LPS + ID 27/control: 5.2
M23379 RAS p21 protein activator
  Ratio: LPS + ID 27/control: 2.8
M32315 tumor necrosis factor receptor superfamily member 1B
  Ratio: LPS + ID 27/control: 0.4
M54915 pim-1 oncogene
  Ratio: LPS + ID 27/control: 0.6
  Ratio: LPS + ID/Ctrl: 0.63
M57230 interleukin 6 signal transducer
  Ratio: LPS + ID 27/control: 1.0
M95678 phospholipase C beta 2
  Ratio: LPS + ID/Ctrl: 2.38
NM_001148 ankyrin 2_neuronal
  Ratio: LPS + ID/Ctrl: 0.82
NM_001663 ADP-ribosylation factor 6
  Ratio: LPS + ID 27/control: 1.7
NM_001940 dentatorubral-pallidoluysian atrophy
  Ratio: LPS + ID 27/control: 1.2
NM_002309 leukemia inhibitory factor
  Ratio: LPS + ID 27/control: 1.9
NM_004862 LPS-induced TNF-alpha factor
  Ratio: LPS + ID 27/control: 1.1
NM_006092 caspase recruitment domain 4
  Ratio: LPS + ID 27/control: 0.5
NM_006325 RAN member RAS oncogene family
  Ratio: LPS + ID 27/control: 1.4
NM_013241 FH1/FH2 domain-containing protein
  Ratio: LPS + ID 27/control: 0.6
NM_013400 replication initiation region protein
  Ratio: LPS + ID 27/control: 2.0
NM_016216 RNA lariat debranching enzyme
  Ratio: LPS + ID 27/control: 10.9
NM_016237 anaphase-promoting complex subunit 5
  Ratio: LPS + ID 27/control: 0.9
NM_016382 NK cell activation inducing ligand NAIL
  Ratio: LPS + ID/Ctrl: 0.81
U19796 melanoma-associated antigen
  Ratio: LPS + ID 27/control: 0.6
U26648 syntaxin 5A
  Ratio: LPS + ID 27/control: 1.4
U34252 aldehyde dehydrogenase 9
  Ratio: LPS + ID 27/control: 1.2
U43083 guanine cription factor 1
  Ratio: LPS + ID 27/control: 1.6
U52522 partner of RAC1
  Ratio: LPS + ID/Ctrl: 1.35
U52960 SRB7 homolog
  Ratio: LPS + ID 27/control: 0.8
U60205 sterol-C4-methyl oxidase-like
  Ratio: LPS + ID 27/control: 0.8
U78027 galactosidase_alpha
  Ratio: LPS + ID 27/control: 1.1
U78166 Ric like
  Ratio: LPS + ID/Ctrl: 0.20
U78166 Ric-like expressed in neurons
  Ratio: LPS + ID 27/control: 0.2
U91316 cytosolic acyl coenzyme A thioester hydrolase
  Ratio: LPS + ID 27/control: 1.4
U94831 transmembrane 9 superfamily member 1
  Ratio: LPS + ID 27/control: 1.5
X03066 MHC class II DO beta
  Ratio: LPS + ID/Ctrl: 4.90
X06614 retinoic acid receptor_alpha
  Ratio: LPS + ID/Ctrl: 0.77
X07173 inter-alpha inhibitor H2
  Ratio: LPS + ID/Ctrl: 0.44
X13334 CD14 antigen
  Ratio: LPS + ID 27/control: 1.1
X16940 smooth muscle enteric actin γ2
  Ratio: LPS + ID/Ctrl: 3.24
X51688 cyclin A2
  Ratio: LPS + ID 27/control: 1.0
X56777 zona pellucida glycoprotein 3A
  Ratio: LPS + ID 27/control: 1.4
X70394 zinc finger protein 146
  Ratio: LPS + ID 27/control: 1.7
X76104 death-associated protein kinase 1
  Ratio: LPS + ID 27/control: 1.8
X76785 integration site for Epstein-Barr virus
  Ratio: LPS + ID 27/control: 1.9
X80692 mitogen-activated protein kinase 6
  Ratio: LPS + ID 27/control: 1.3
X85750 monocyte to macrophage differentiation-associated
  Ratio: LPS + ID 27/control: 1.1
X92896 Unknown
  Ratio: LPS + ID 27/control: 1.5
X92972 protein phosphatase 6 catalytic subunit
  Ratio: LPS + ID 27/control: 1.1
Z99756 Unknown
  Ratio: LPS + ID 27/control: 14.0
